Test results from patent publication US9617267B2, “Compounds and methods for kinase modulation, and indications therefor” (Plexxikon Inc., priority 2009, dated 2017).
Like-named read-outs stand apart in the source and are kept apart here.

How the values were obtained:
[1] = target: CYP2D6 (Homo sapiens (Human), UniProt P10635); test: CYP enzyme inhibition, fluorescent substrate (AMMC); format: in vitro ADME; details: read-out: Cyp IC50 2D6
In short: (§1)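 IC50 derived from loss of fluorescent metabolite across a 10-point 1:1 dilution series. CYP2D6: 1.5 pmol enzyme, 1.5 μM AMMC, 30 min at 37 °C, 409/530 nm; CYP1A2: 0.5 pmol, 5 μM CEC, 15 min, 409/460 nm. Compounds pre-incubated 10 min in NADPH-regenerating mix.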

[2] = target: CYP1A2 (Homo sapiens (Human), UniProt P05177); test: CYP enzyme inhibition, fluorescent substrate (CEC)
Chain of CYP1A2 (P05177 whole entry): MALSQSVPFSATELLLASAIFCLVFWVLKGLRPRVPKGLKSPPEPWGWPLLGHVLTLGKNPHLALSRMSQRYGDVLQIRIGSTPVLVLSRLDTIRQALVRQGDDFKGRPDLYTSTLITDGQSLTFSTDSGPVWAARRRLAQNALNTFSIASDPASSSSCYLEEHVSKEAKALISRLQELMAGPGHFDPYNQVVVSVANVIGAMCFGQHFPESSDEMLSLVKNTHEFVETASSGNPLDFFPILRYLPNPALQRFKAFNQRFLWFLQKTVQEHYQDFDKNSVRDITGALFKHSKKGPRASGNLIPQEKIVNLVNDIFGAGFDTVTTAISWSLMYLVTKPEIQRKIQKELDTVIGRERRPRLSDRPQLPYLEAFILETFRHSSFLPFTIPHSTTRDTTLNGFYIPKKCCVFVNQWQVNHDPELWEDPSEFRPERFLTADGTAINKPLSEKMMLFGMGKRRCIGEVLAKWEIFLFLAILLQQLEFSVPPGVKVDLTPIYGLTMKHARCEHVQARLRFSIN
In short: as §1

[3] = target: CYP3A4(BQ) (Homo sapiens (Human), UniProt P08684); test: CYP enzyme inhibition, fluorescent substrate BQ
Chain of CYP3A4(BQ) (P08684 whole entry): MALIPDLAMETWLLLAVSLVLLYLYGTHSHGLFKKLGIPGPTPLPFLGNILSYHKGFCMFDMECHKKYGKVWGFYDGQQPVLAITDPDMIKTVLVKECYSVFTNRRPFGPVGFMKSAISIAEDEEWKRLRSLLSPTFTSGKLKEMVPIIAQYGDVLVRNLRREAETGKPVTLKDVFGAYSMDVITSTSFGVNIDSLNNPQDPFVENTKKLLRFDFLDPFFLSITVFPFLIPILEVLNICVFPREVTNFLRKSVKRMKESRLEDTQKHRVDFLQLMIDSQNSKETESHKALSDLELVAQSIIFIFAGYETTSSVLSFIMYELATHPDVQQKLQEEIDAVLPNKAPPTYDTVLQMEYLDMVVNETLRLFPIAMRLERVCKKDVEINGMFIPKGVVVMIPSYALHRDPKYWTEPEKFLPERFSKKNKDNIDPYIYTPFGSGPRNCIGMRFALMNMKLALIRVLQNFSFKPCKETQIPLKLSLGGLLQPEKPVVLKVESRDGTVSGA
In short: (§2)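 10-pt 1:1 serial dilution in co-factor mix (DMSO stock 100 mM); 10 min preincubation, 37 °C; reaction at 37 °C. Readout: fluorescent metabolite of probe substrate. IC50 from signal vs [compound].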

[4] = target: CYP2C19 (Homo sapiens (Human), UniProt P33261); test: CYP enzyme inhibition, fluorescent substrate (CEC)
Chain of CYP2C19 (P33261 whole entry): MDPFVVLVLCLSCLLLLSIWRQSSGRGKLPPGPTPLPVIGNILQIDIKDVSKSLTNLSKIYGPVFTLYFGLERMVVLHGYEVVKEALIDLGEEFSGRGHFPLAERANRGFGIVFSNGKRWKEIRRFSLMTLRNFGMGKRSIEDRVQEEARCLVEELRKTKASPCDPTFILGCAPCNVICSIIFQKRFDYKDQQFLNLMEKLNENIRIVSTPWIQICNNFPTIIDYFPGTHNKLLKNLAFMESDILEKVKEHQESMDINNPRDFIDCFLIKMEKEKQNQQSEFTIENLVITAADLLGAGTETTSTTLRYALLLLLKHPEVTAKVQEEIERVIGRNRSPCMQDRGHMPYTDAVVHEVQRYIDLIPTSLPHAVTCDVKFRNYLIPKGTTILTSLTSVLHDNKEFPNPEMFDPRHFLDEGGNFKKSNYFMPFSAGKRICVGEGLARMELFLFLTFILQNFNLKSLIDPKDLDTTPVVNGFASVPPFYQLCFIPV
In short: as §2

[5] = Relative solubility by turbidity threshold concentration in aqueous buffers (pH 1.5, 4.5, 6.8, 7.4); format: physicochemical; details: for turbidity threshold (L, M, H) 1.4: pH 1.4 [sic] (method: SGF pH 1.5); for turbidity threshold (L, M, H) 4.5: pH 4.5 (SIF); for turbidity threshold (L, M, H) 6.8: pH 6.8 (SIF); for turbidity threshold (L, M, H) 7.4: pH 7.4 (HEPES)
In short: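 Solubility class (high >250 μM, moderate 31.3–250 μM, low <31.3 μM) comes from the concentration where absorbance reaches a 0.01 threshold, averaged across 490/535/650 nm. Samples were compound dilutions from DMSO stock, 1 μL into 99 μL buffer at pH 1.5, 4.5, 6.8 or 7.4.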

[6] = target: CYP2C9 (Homo sapiens (Human), UniProt P11712); test: CYP enzyme inhibition, fluorescent substrate (MFC)
Chain of CYP2C9 (P11712 whole entry): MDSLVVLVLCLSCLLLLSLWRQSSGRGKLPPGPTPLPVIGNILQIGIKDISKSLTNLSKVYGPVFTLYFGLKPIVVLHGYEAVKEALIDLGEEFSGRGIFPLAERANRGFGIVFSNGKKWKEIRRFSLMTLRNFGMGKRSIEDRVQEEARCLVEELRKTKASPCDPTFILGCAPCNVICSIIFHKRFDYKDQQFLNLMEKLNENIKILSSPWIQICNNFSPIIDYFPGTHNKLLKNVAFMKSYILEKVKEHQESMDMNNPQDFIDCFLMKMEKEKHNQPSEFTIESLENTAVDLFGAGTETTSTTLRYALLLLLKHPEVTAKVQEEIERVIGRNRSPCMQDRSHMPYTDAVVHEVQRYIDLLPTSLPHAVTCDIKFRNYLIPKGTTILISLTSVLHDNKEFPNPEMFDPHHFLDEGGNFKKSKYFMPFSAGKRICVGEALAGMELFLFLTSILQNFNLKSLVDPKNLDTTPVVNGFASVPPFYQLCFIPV
In short: as §2

[7] = target: B-Raf (Homo sapiens (Human), UniProt P15056); test: B-Raf kinase activity biochemical assay (AlphaScreen, biotin-MEK1 phosphorylation); details: B-Raf
Chain of B-Raf (Homo sapiens (Human), UniProt P15056) (P15056 whole entry): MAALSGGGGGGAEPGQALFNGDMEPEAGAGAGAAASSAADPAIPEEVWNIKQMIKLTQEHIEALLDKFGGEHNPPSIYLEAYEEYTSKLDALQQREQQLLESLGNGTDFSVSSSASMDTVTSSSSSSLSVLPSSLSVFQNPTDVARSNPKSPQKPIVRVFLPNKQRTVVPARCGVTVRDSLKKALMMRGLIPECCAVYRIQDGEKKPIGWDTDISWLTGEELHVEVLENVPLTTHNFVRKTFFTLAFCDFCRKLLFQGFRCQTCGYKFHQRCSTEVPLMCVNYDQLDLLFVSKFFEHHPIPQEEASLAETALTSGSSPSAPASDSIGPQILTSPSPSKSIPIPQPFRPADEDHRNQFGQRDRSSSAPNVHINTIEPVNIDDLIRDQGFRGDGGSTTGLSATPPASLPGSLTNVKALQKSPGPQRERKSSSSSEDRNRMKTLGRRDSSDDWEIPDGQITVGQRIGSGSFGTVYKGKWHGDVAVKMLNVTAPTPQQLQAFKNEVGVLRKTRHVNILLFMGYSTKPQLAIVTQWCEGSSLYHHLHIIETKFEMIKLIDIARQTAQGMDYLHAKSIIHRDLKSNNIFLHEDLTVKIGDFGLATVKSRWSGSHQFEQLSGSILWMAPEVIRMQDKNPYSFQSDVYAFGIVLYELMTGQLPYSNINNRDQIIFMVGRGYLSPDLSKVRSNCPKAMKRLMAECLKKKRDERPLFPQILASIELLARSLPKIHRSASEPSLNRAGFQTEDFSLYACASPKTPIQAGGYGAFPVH
In short: (§3)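 Compounds from a 0.1 mM DMSO stock were tested at 8 serially diluted points. Kinase reactions with 100 μM ATP (final) ran 45 min at room temperature, then were stopped with EDTA buffer containing anti-phospho-MEK1/2 antibody plus streptavidin donor and protein A acceptor beads.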

[8] = system: B-Raf; test: as above; details: for Biochemical activity ratio B/V600E: ratio of IC50 B-Raf / B-Raf V600E; for Biochemical activity ratio B/C: ratio of IC50 B-Raf / c-Raf-1
In short: as §3

[9] = target: CYP3A4(BFC) (Homo sapiens (Human), UniProt P08684); test: CYP enzyme inhibition, fluorescent substrate BFC
Chain of CYP3A4(BFC) (P08684 whole entry): as the sequence (P08684 whole entry) above
In short: as §2

[10] = target: B-Raf V600E (Homo sapiens (Human), UniProt P15056, V600E); test: B-Raf V600E kinase activity biochemical assay (AlphaScreen, biotin-MEK1 phosphorylation); details: for IC50: B-Raf V600E; for Biochemical activity ratio V600E/C: ratio of IC50 B-Raf V600E / c-Raf-1
Chain of B-Raf V600E (P15056 whole entry V600E): as the sequence (P15056 whole entry) above, with V600E counted along it
In short: as §3

[11] = target: c-Raf-1 (Homo sapiens, UniProt P04049); test: c-Raf-1 kinase activity biochemical assay (AlphaScreen, biotin-MEK1 phosphorylation)
Chain of c-Raf-1 (P04049 whole entry, looked up): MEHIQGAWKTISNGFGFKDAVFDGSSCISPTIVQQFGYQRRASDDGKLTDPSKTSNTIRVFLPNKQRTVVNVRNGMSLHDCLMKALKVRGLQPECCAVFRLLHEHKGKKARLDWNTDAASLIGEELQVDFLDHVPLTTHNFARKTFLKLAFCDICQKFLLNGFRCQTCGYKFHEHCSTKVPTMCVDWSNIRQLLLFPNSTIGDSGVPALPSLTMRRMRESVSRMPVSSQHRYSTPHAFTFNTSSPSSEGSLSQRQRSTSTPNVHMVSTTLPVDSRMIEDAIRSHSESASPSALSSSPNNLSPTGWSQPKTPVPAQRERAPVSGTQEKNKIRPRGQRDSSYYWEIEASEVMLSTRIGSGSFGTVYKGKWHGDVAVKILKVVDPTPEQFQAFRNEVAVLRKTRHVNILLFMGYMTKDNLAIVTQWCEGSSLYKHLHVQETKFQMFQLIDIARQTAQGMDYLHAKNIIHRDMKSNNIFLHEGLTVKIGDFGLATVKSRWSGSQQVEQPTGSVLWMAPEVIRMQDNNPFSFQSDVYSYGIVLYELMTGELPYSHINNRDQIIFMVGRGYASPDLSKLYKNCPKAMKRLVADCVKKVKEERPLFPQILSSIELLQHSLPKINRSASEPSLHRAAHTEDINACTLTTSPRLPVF
In short: as §3

[12] = read-out: Cyp IC50 3A4(BQ), CYP3A4, substrate BQ
[13] = read-out: Cyp IC50 2C19, CYP2C19, substrate CEC
[14] = read-out: Cyp IC50 2C9, CYP2C9, substrate MFC
[15] = read-out: Cyp IC50 3A4(BFC), CYP3A4, substrate BFC
[16] = read-out: Cyp IC50 1A2, CYP1A2, substrate CEC

Chain of CYP2D6 (P10635 whole entry): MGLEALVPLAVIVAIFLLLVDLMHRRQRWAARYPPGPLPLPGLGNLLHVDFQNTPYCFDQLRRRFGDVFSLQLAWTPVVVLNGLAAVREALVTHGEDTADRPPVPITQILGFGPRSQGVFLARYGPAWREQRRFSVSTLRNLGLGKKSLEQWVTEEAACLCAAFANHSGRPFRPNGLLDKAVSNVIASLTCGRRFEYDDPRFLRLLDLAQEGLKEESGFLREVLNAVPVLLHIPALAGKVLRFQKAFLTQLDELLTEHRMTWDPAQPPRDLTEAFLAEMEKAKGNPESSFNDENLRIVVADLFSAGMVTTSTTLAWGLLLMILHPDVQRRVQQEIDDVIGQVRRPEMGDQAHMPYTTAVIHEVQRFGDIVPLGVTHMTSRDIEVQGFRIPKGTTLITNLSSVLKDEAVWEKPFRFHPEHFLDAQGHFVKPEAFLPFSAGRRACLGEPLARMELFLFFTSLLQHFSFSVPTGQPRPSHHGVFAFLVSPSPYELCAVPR

IC50 [9] [µM] | Compound | IC50 [1] [µM] | IC50 [4] [µM] | turbidity threshold (L, M, H) 1.4 [5] | turbidity threshold (L, M, H) 4.5 [5] | turbidity threshold (L, M, H) 6.8 [5] | turbidity threshold (L, M, H) 7.4 [5] | IC50 [6] [µM] | IC50 [7] [µM] | Biochemical activity ratio B/V600E [8] | Biochemical activity ratio B/C [8] | IC50 [10] [µM] | Biochemical activity ratio V600E/C [10] | IC50 [11] [µM] | IC50 ([2]; human, 15 min) [µM] | IC50 [3, 12] [µM] | IC50 [4, 13] [µM] | IC50 [6, 14] [µM] | IC50 [9, 15] [µM] | IC50 [2, 16] [µM] | further results
> 10 | Cc1c(Cl)cnc2[nH]cc(C(=O)c3c(F)ccc(NS(=O)(=O)c4ccc(C(F)(F)F)cc4)c3F)c12 [P-2011, N-[3-(5-Chloro-4-methyl-1H-pyrrolo[2,3-b]pyridine-3-carbonyl)-2,4-difluoro-phenyl]-4-trifluoromethyl-benzene sulfonamide] | 5 to 10 | < 5 | L (low solubility if the threshold concentration is <31.3 μM) | L (low solubility if the threshold concentration is <31.3 μM) | L (low solubility if the threshold concentration is <31.3 μM) | L (low solubility if the threshold concentration is <31.3 μM) | > 10 | < 0.1 | 0.1-10 | 0.1-10 | > 0.1 | >10 | < 0.1 | – | – | – | – | – | – | IC50 [2]: > 10 µM; IC50 [3]: > 10 µM
– | CN(C)CCNc1ncnc2[nH]cc(C(=O)c3c(F)ccc(NS(=O)(=O)c4ccc(C(F)(F)F)cc4)c3F)c12 [P-1059, N-{3-[4-(2-Dimethylamino-ethylamino)-7H-pyrrolo[2,3-d]pyrimidine-5-carbonyl]-2,4-difluoro-phenyl}-4-trifluoromethyl-benzenesulfonamide] | > 10 | – | H (high solubility if the threshold concentration is >250 μm) | M (moderate solubility if the threshold concentration is 31.3 μM to 250 μM) | M (moderate solubility if the threshold concentration is 31.3 μM to 250 μM) | M (moderate solubility if the threshold concentration is 31.3 μM to 250 μM) | – | > 0.1 | 0.1-10 | 0.1-10 | > 0.1 | >10 | < 0.1 | > 10 | > 10 | > 10 | > 10 | > 10 | – | –
– | CCOc1ncnc2[nH]cc(C(=O)c3c(F)ccc(NS(=O)(=O)c4ccc(C(F)(F)F)cc4)c3F)c12 [P-1006, N-[3-(4-Ethoxy-7H-pyrrolo[2,3-d]pyrimidine-5-carbonyl)-2,4-difluoro-phenyl]-4-trifluoromethyl-benzenesulfonamide] | > 10 | – | L (low solubility if the threshold concentration is <31.3 μM) | L (low solubility if the threshold concentration is <31.3 μM) | L (low solubility if the threshold concentration is <31.3 μM) | H (high solubility if the threshold concentration is >250 μm) | 5 to 10 | > 0.1 | 0.1-10 | 0.1-10 | > 0.1 | >10 | < 0.1 | – | > 10 | > 10 | – | < 5 | > 10 | –
> 10 | CCCS(=O)(=O)Nc1ccc(F)c(C(=O)c2c[nH]c3ncnc(OCC)c23)c1F [P-1002, Propane-1-sulfonic acid [3-(4-ethoxy-7H-pyrrolo[2,3-d]pyrimidine-5-carbonyl)-2,4-difluoro-phenyl]-amide] | > 10 | > 10 | H (high solubility if the threshold concentration is >250 μm) | H (high solubility if the threshold concentration is >250 μm) | H (high solubility if the threshold concentration is >250 μm) | H (high solubility if the threshold concentration is >250 μm) | > 10 | > 0.1 | 0.1-10 | >10 | < 0.1 | 0.1-10 | < 0.1 | – | – | – | – | – | – | IC50 [2]: > 10 µM; IC50 [3]: > 10 µM
– | O=C(c1c(F)ccc(NS(=O)(=O)c2ccc(C(F)(F)F)cc2)c1F)c1c[nH]c2ncnc(NC3CC3)c12 [P-1011, N-[3-(4-Cyclopropylamino-7H-pyrrolo[2,3-d]pyrimidine-5-carbonyl)-2,4-difluoro-phenyl]-4-trifluoromethyl-benzenesulfonamide] | > 10 | 5 to 10 | M (moderate solubility if the threshold concentration is 31.3 μM to 250 μM) | L (low solubility if the threshold concentration is <31.3 μM) | L (low solubility if the threshold concentration is <31.3 μM) | L (low solubility if the threshold concentration is <31.3 μM) | – | < 0.1 | 0.1-10 | >10 | > 0.1 | >10 | < 0.1 | > 10 | > 10 | – | > 10 | < 5 | – | –
– | COc1ncnc2[nH]cc(C(=O)c3c(F)ccc(NS(=O)(=O)c4ccc(C(C)C)cc4)c3F)c12 [P-1010, N-[2,4-Difluoro-3-(4-methoxy-7H-pyrrolo[2,3-d]pyrimidine-5-carbonyl)-phenyl]-4-isopropyl-benzenesulfonamide] | > 10 | 5 to 10 | L (low solubility if the threshold concentration is <31.3 μM) | L (low solubility if the threshold concentration is <31.3 μM) | L (low solubility if the threshold concentration is <31.3 μM) | M (moderate solubility if the threshold concentration is 31.3 μM to 250 μM) | 5 to 10 | > 0.1 | 0.1-10 | 0.1-10 | > 0.1 | >10 | > 0.1 | – | > 10 | – | – | > 10 | > 10 | –
– | CCCS(=O)(=O)Nc1ccc(F)c(C(=O)c2c[nH]c3ncnc(NC4CCOCC4)c23)c1F [P-1047, Propane-1-sulfonic acid {2,4-difluoro-3-[4-(tetrahydro-pyran-4-ylamino)-7H-pyrrolo[2,3-d]pyrimidine-5-carbonyl]-phenyl}-amide] | > 10 | – | M (moderate solubility if the threshold concentration is 31.3 μM to 250 μM) | L (low solubility if the threshold concentration is <31.3 μM) | L (low solubility if the threshold concentration is <31.3 μM) | L (low solubility if the threshold concentration is <31.3 μM) | – | < 0.1 | 0.1-10 | >10 | < 0.1 | >10 | < 0.1 | – | > 10 | > 10 | > 10 | > 10 | > 10 | –

Compound | IC50 [9] [µM] | IC50 [1] [µM] | IC50 [4] [µM] | turbidity threshold (L, M, H) 1.4 [5] | turbidity threshold (L, M, H) 4.5 [5] | turbidity threshold (L, M, H) 6.8 [5] | turbidity threshold (L, M, H) 7.4 [5] | IC50 [6] [µM] | IC50 [7] [µM] | Biochemical activity ratio B/V600E [8] | Biochemical activity ratio B/C [8] | IC50 [10] [µM] | Biochemical activity ratio V600E/C [10] | IC50 [11] [µM] | IC50 ([2]; human, 15 min) [µM] | IC50 [3, 12] [µM] | IC50 [4, 13] [µM] | IC50 [6, 14] [µM] | IC50 [9, 15] [µM] | IC50 [2, 16] [µM] | further results
CCCc1ccc(S(=O)(=O)Nc2ccc(F)c(C(=O)c3c[nH]c4ncnc(NC(C)C)c34)c2F)cc1 [P-1055, N-[2,4-Difluoro-3-(4-isopropylamino-7H-pyrrolo[2,3-d]pyrimidine-5-carbonyl)-phenyl]-4-propyl-benzenesulfonamide] | 5 to 10 | > 10 | – | L (low solubility if the threshold concentration is <31.3 μM) | L (low solubility if the threshold concentration is <31.3 μM) | L (low solubility if the threshold concentration is <31.3 μM) | L (low solubility if the threshold concentration is <31.3 μM) | 5 to 10 | < 0.1 | 0.1-10 | 0.1-10 | > 0.1 | >10 | < 0.1 | > 10 | > 10 | < 5 | – | – | – | –
